According to ChEMBL document CHEMBL4350985, “1,3-Dioxane as a scaffold for potent and selective 5-HT1AR agonist with in-vivo anxiolytic, anti-depressant and anti-nociceptive activity” (Eur J Med Chem, 2019):
Activity calls are given as the source filed them. The rule behind the calls is not given here.

Assays:
SH-SY5Y [1] = assay: Neuroprotective activity against oligomycin A-induced cell death in human SH-SY5Y cells at 1 uM incubated for 24 hrs by MTT assay; format: functional
SH-SY5Y [2] = assay: Neuroprotective activity against rotenone-induced cell death in human SH-SY5Y cells at 1 uM incubated for 24 hrs by MTT assay; format: functional
SH-SY5Y [3] = assay: Neuroprotective activity against oligomycin A-induced cell death in human SH-SY5Y cells at 0.1 uM incubated for 24 hrs by MTT assay; format: functional
SH-SY5Y [4] = assay: Neuroprotective activity against rotenone-induced cell death in human SH-SY5Y cells at 0.1 uM incubated for 24 hrs by MTT assay; format: functional
[5] = Apparent permeability from apical to basolateral side in dog MDCK2-MDR1 cells incubated for 120 mins by UV-visible spectrophotometry; format: ADME, cell-based, Canis lupus familiaris; details: MDCK-MDR1
[6] = Efflux ratio of apparent permeability from basolateral to apical side over apical to basolateral side in dog MDCK2-MDR1 cells incubated for 120 mins by UV-visible spctrophotometry; format: ADME, cell-based, Canis lupus familiaris; details: MDCK-MDR1
[7] = AUC (0 to infinity) in Sprague-Dawley rat plasma at 10 mg/kg, po measured upto 480 mins by LC/MS-MS analysis; format: ADME, organism-based; parameters: dose 10 mg/kg, route oral, time infinity; details: in vivo, 8 h
[8] = Half life in Sprague-Dawley rat plasma at 10 mg/kg, po measured upto 480 mins by LC/MS-MS analysis; format: ADME, organism-based
[9] = AUC (0 to t) in Sprague-Dawley rat brain at 10 mg/kg, po measured upto 480 mins by LC/MS-MS analysis; format: ADME, organism-based; details: in vivo, 8 h
[10] = Half life in Sprague-Dawley rat brain at 10 mg/kg, po measured after 45 to 480 mins by LC/MS-MS analysis; format: ADME, organism-based
Rattus norvegicus [11] = assay: Anxiolytic activity at Sprague-Dawley rat assessed as increase in number of open arm entries at 10 to 20 mg/kg, po by EPM test; format: functional, organism-based
Rattus norvegicus [12] = assay: Antidepressant activity in Sprague-Dawley rat assessed as increase in time spent in swimming at 10 and 20 mg/kg, po by forced swim test; format: functional, organism-based
Mus musculus [13] = assay: Antinociceptive activity in formalin-induced nociception pain Swiss […] mouse model assessed as decrease in perception of II phase of noxious stimulus at 10 mg/kg, ip by formalin test; format: functional, organism-based
Mus musculus [14] = assay: Antinociceptive activity in formalin-induced nociception pain Swiss […] mouse model assessed as perception of II phase of noxious stimulus at 10 mg/kg, ip co-administered with 3 mg/kg, ip 5-HT1AR antagonist WAY-100635 by formalin test; format: functional, organism-based
[15] = Ratio of compound t1/2 to 8-OH-DPAT t1/2 in Sprague-Dawley rat plasma at 10 mg/kg, po measured upto 480 mins by LC/MS-MS analysis; format: ADME, organism-based; details: in vivo, 8 h
Rattus norvegicus [16] = assay: Anxiolytic activity at Sprague-Dawley rat assessed as decrease in time spent in closed arm at 5 to 20 mg/kg, po by EPM test; format: functional, organism-based

## COc1ccccc1OCCNCC1COC(c2ccccc2)(c2ccccc2)OC1.O=C(O)C(=O)O
SH-SY5Y [1]
  Activity: 83%
SH-SY5Y [2]
  Activity: 61%
SH-SY5Y [3]
  Activity: 69%
SH-SY5Y [4]
  Activity: 63%
[5]
  Papp A→B at 2 h: 26 ×10⁻⁶ cm/s
[6]
  efflux ratio at 2 h: 0.49
[7]
  AUC: 18.1 nmol·min/g
[8]
  half-life: 1.71 h
[9]
  AUCt: 7167.6 nmol·min/g
[10]
  half-life: 2.37 h
Rattus norvegicus [11]
  Activity: Active
Rattus norvegicus [12]
  Activity: Active
Mus musculus [13]
  inhibition: Active
Mus musculus [14]
  inhibition: inactive
[15]
  Ratio: 3
Rattus norvegicus [16]
  inhibition: Active
